# Results reported in patent US8476434B2, “Protein kinase modulators and method of use” (Amgen Inc., priority 2004, dated 2013).
# Target: T1, LCK KD GST (225-509) (Homo sapiens, UniProt P06239)
# T1 construct: LCK KD GST (225-509); GST
# Experiment: LCK Homogenous Time Resolved Fluorescent (HTRF) kinase assay
# Assay type: biochemical
# T1 sequence (P06239 225-509): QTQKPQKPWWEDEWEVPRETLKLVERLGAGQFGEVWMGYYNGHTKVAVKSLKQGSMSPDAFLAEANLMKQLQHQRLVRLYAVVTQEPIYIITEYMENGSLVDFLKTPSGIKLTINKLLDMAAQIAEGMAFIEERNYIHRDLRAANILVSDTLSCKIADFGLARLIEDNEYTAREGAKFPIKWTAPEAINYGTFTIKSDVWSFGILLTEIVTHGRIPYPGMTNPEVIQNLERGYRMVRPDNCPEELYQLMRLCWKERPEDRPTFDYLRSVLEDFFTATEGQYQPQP
row,IC50 [µM],Compound
1,< 1,"CNc1ncnc(-c2cccnc2Oc2cc(C(=O)Nc3cc(C4CCCCC4)ccc3OC)ccc2C)n1 [N-(5-cyclohexyl-2-(methyloxy)phenyl)-4-methyl-3-((3-(4-(methylamino)-1,3,5-triazin-2-yl)-2-pyridinyl)oxy)benzamide]"
2,< 1,COc1ccc(C2CCCCC2)cc1NC(=O)c1ccc(C)c(Oc2ncccc2-c2ccncn2)c1 [N-(5-cyclohexyl-2-(methyloxy)phenyl)-4-methyl-3-((3-(4-pyrimidinyl)-2-pyridinyl)oxy)benzamide]
3,< 1,CNc1nccc(-c2cccnc2Oc2ccc(F)c(C(=O)Nc3cc(C4CC4)ccc3N(C)CCCN(C)C)c2)n1 [N-(5-cyclopropyl-2-((3-(dimethylamino)propyl)(methyl)amino)phenyl)-2-fluoro-5-((3-(2-(methylamino)-4-pyrimidinyl)-2-pyridinyl)oxy)benzamide]
4,< 1,Cc1ccc(C(=O)N[C@H](C)C2CCCCC2)cc1Nc1ncccc1-c1ccncn1 [N-((1R)-1-cyclohexylethyl)-4-methyl-3-((3-(4-pyrimidinyl)-2-pyridinyl)amino)benzamide]
